Data taken from US6783539B1, “Phototriggerable, collagen-crosslinking compounds for wound closure” (University of Kansas Medical Center, priority 2001, dated 2004).

Test: Photoactivated welding of rabbit Achilles tendon pieces, tensile strength by tensiometer
Conditions: mixture of 1.2 M DPD and 1.2 M DEDA in DMSO between two tendon pieces, 2 W, 500 sec (1,000 J)
Procedure: A rabbit Achilles tendon, previously stored at −70° C., was dissected from the remaining muscle, cleaned of fascia and muscle, and divided in half along its length.
One tendon piece was placed diagonally on a fused silica (UV transparent) glass slide and several drops of the mixture was placed in the center of the tendon piece. The other tendon piece was placed on top, forming an “X” shape with the mixture in between the two pieces at their intersection. Another identical slide was placed on top and light pressure was applied to the two slides.
The tendons and slides were then placed beneath a liquid light guide that delivered light from a filtered mercury-arc light source (320-500 nm, 2 W) and exposed for 500 sec (1,000 J).
After light exposure, the tendons were removed from the slide and placed on an illuminated grid beneath a CCD camera with a macro lens. An image of the overlapped (i.e. “welded”) area was digitized and stored. Measurement of the overlapped area was made using standard computer software.
The welded tendon was then placed in a tensiometer to measure tensile strength. One tendon end was clamped and attached to a strain gauge, while the opposite end of the other tendon clamped to a block moved by a lead screw.
The maximum force tolerated by the bonded tendon before breaking was divided by the bonded area to calculate the Maximum Stress in Newtons/cm^2.

Which “Observation of tendon welding after light exposure” value (320-500 nm) does the source give for `[N-]=[N+]=CC(=O)C(=O)NCCOCCOCCNC(=O)C(=O)C=[N+]=[N-]` [DPD, N,N′-bis(3-diazapynivoyl)-2,2′-(ethylenedioxy)bis(ethylamine)] here?
Its value is “welded together”.

What about the “Maximum Stress (maximum force tolerated by the bonded tendon before breaking divided by the bonded area)” value (filtered mercury-arc light 320-500 nm) of the same compound?
The value was 31.7 N/cm^2.
